Measurements taken from patent US20230295234A1, “ANTIMICROBIAL PEPTIDOMIMETICS” (SPEXIS AG, priority 2020, published 2023).
Peptide text beside a SMILES is read from it.

Experiments:
[1] = system: Klebsiella pneumoniae SSI3010; details: SSI3010
How it was run: (§1)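 Two-fold serial dilutions of peptide, in water with polysorbate 80 (0.002% final), met bacteria adjusted to 0.5 McFarland then diluted to about 5×10^5 CFU/mL. Medium was cation-adjusted Mueller-Hinton II broth; peptide stocks were 1 mg/mL in sterile water.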

[2] = system: Escherichia coli MCR-1 Af 45; details: MCR-1 Af 45
How it was run: as §1

[3] = system: Escherichia coli ATCC 25922; details: ATCC 25922
How it was run: as §1

[4] = system: human red blood cells (hRBC); experiment: Hemolysis of human red blood cells; format: cell-based; details: red cells of human, 1 h
How it was run: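 PBS-washed human red blood cells (20% v/v) were incubated with peptide at 200 μg/mL for 1 h at 37 °C with shaking. Supernatant OD was read at 540 nm after 8-fold dilution. Hemolysis is expressed as percent of the water control.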

CC[C@H](C)[C@H](NC(=O)[C@@H](NC(=O)[C@@H]1CCCN1C(=O)[C@@H](NC(=O)[C@@H]1CCCN1C(=O)[C@H](CCCCN)NC(=O)CNCCN)C(C)C)[C@@H](C)CC)C(=O)N[C@@H](Cc1ccc(O)cc1)C(=O)N[C@H]1CSSC(C)(C)[C@@H](C(=O)N[C@@H](CCN)C(=O)N[C@@H](CCCNC(=N)N)C(=O)N[C@@H](Cc2ccc(O)cc2)C(=O)O)NC(=O)[C@H](CCCCN)NC(=O)[C@@H](CCN)NC(=O)[C@H]([C@@H](C)O)NC(=O)[C@H](CCN)NC(=O)[C@H](CCCNC(=N)N)NC(=O)[C@H](CC(N)=O)NC1=O [Example 113] (HELM PEPTIDE1{[NCCNCC(=O)[*:2]].K.P.V.P.I.I.Y.C.N.R.[Dab].T.[NCC[C@@H](N[*:1])C(=O)[*:2]].K.[Pen].[Dab].R.Y}$PEPTIDE1,PEPTIDE1,9:R3-16:R3$$$V2.0)
Klebsiella pneumoniae SSI3010 MIC [1]: 0.125 µg/mL | Escherichia coli MCR-1 Af 45 MIC [2]: 0.125 µg/mL | Escherichia coli ATCC 25922 MIC [3]: 0.0625 µg/mL | Hemolysis at 0.2 g/L [4]: 0%

CC[C@H](C)[C@H](NC(=O)[C@@H](NC(=O)[C@@H]1CCCN1C(=O)[C@@H](NC(=O)[C@@H]1C[C@@H](N)CN1C(=O)[C@H](CCCCN)NC(=O)[C@@H](N)CCCCN)C(C)C)[C@@H](C)CC)C(=O)N[C@@H](Cc1ccc(O)cc1)C(=O)N[C@@H]1C(=O)N[C@@H](CC(N)=O)C(=O)N[C@@H](CCCNC(=N)N)C(=O)N[C@@H](CCN)C(=O)N[C@@H]([C@@H](C)O)C(=O)N[C@H](CCN)C(=O)N[C@@H](CCCCN)C(=O)N[C@H](C(=O)N[C@@H](CCN)C(=O)N[C@@H](CCCNC(=N)N)C(=O)N[C@@H](Cc2ccc(O)cc2)C(=O)O)CSSC1(C)C [Example 114, Lys-Lys-Pro((4R)NH2)-Val-Pro-Ile-Ile-Tyr-Pen-Asn-Arg-^Dab-Thr-^DDab-Lys-Cys-Dab-Arg-Tyr] (HELM PEPTIDE1{K.K.[N[C@@H]1C[C@@H](C(=O)[*:2])N([*:1])C1].V.P.I.I.Y.[Pen].N.R.[Dab].T.[NCC[C@@H](N[*:1])C(=O)[*:2]].K.C.[Dab].R.Y}$PEPTIDE1,PEPTIDE1,9:R3-16:R3$$$V2.0)
Klebsiella pneumoniae SSI3010 MIC [1]: 0.0625 µg/mL | Escherichia coli MCR-1 Af 45 MIC [2]: 0.0625 µg/mL | Escherichia coli ATCC 25922 MIC [3]: 0.0625 µg/mL | Hemolysis at 0.2 g/L [4]: 0%

CC[C@H](C)[C@H](NC(=O)[C@@H]1C[C@@H](N)CN1C(=O)[C@@H](NC(=O)[C@@H]1CCCN1C(=O)[C@H](CCCCN)NC(=O)[C@@H](N)CCCCN)C(C)C)C(=O)N[C@@H](CCCNC(=N)N)C(=O)N[C@@H](Cc1ccc(O)cc1)C(=O)N[C@@H]1C(=O)N[C@@H](CC(N)=O)C(=O)N[C@@H](CCCNC(=N)N)C(=O)N[C@@H](CCN)C(=O)N[C@@H]([C@@H](C)O)C(=O)N[C@H](CCN)C(=O)N[C@@H](CCCCN)C(=O)N[C@H](C(=O)N[C@@H](CCN)C(=O)N[C@@H](CCCNC(=N)N)C(=O)N[C@@H](Cc2ccc(O)cc2)C(=O)O)CSSC1(C)C [Example 115, Lys-Lys-Pro-Val-Pro((4R)NH2)-Ile-Arg-Tyr-Pen-Asn-Arg-^Dab-Thr-^DDab-Lys-Cys-Dab-Arg-Tyr] (HELM PEPTIDE1{K.K.P.V.[N[C@@H]1C[C@@H](C(=O)[*:2])N([*:1])C1].I.R.Y.[Pen].N.R.[Dab].T.[NCC[C@@H](N[*:1])C(=O)[*:2]].K.C.[Dab].R.Y}$PEPTIDE1,PEPTIDE1,9:R3-16:R3$$$V2.0)
Klebsiella pneumoniae SSI3010 MIC [1]: 0.25 µg/mL | Escherichia coli MCR-1 Af 45 MIC [2]: 0.125 µg/mL | Escherichia coli ATCC 25922 MIC [3]: 0.0625 µg/mL | Hemolysis at 0.2 g/L [4]: 0%

CC[C@H](C)[C@H](NC(=O)[C@@H](NC(=O)[C@@H]1C[C@@H](O)CN1C(=O)[C@@H](NC(=O)[C@@H]1C[C@@H](O)CN1C(=O)[C@H](CCCCN)NC(=O)[C@@H](N)CCCCN)C(C)C)[C@@H](C)CC)C(=O)N[C@@H](Cc1ccc(O)cc1)C(=O)N[C@@H]1C(=O)N[C@@H](CC(N)=O)C(=O)N[C@@H](CCCNC(=N)N)C(=O)N[C@@H](CCN)C(=O)N[C@@H]([C@@H](C)O)C(=O)N[C@H](CCN)C(=O)N[C@@H](CCCCN)C(=O)N[C@H](C(=O)N[C@@H](CCN)C(=O)N[C@@H](CCCNC(=N)N)C(=O)N[C@@H](Cc2ccc(O)cc2)C(=O)O)CSSC1(C)C [Example 116, Lys-Lys-Hyp-Val-Hyp-Ile-Ile-Tyr-Pen-Asn-Arg-Dab-Thr-^DDab-Lys-Cys-Dab-Arg-Tyr] (HELM PEPTIDE1{K.K.[Hyp].V.[Hyp].I.I.Y.[Pen].N.R.[Dab].T.[NCC[C@@H](N[*:1])C(=O)[*:2]].K.C.[Dab].R.Y}$PEPTIDE1,PEPTIDE1,9:R3-16:R3$$$V2.0)
Klebsiella pneumoniae SSI3010 MIC [1]: 0.125 µg/mL | Escherichia coli MCR-1 Af 45 MIC [2]: 0.0625 µg/mL | Escherichia coli ATCC 25922 MIC [3]: 0.0625 µg/mL | Hemolysis at 0.2 g/L [4]: 0%

CC[C@H](C)[C@H](NC(=O)[C@@H](NC(=O)[C@@H]1C[C@@H](O)CN1C(=O)[C@@H](NC(=O)[C@@H]1C[C@@H](O)CN1C(=O)[C@H](CCCCN)NC(=O)[C@@H](N)CCCCN)C(C)C)[C@@H](C)CC)C(=O)N[C@@H](Cc1ccc(O)cc1)C(=O)N[C@H]1CSSC[C@@H](C(=O)N[C@@H](CCN)C(=O)N[C@@H](CCCNC(=N)N)C(=O)N[C@@H](Cc2ccc(O)cc2)C(=O)O)NC(=O)[C@H](CCCCN)NC(=O)[C@@H](CCN)NC(=O)[C@H]([C@@H](C)O)NC(=O)[C@H](CCN)NC(=O)[C@H](CCCNC(=N)N)NC(=O)[C@H](CC(N)=O)NC1=O [Example 117, Lys-Lys-Hyp-Val-Hyp-Ile-Ile-Tyr-Cys-Asn-Arg-Dab-Thr-^DDab-Lys-Cys-Dab-Arg-Tyr] (HELM PEPTIDE1{K.K.[Hyp].V.[Hyp].I.I.Y.C.N.R.[Dab].T.[NCC[C@@H](N[*:1])C(=O)[*:2]].K.C.[Dab].R.Y}$PEPTIDE1,PEPTIDE1,9:R3-16:R3$$$V2.0)
Klebsiella pneumoniae SSI3010 MIC [1]: 0.125 µg/mL | Escherichia coli MCR-1 Af 45 MIC [2]: 0.0625 µg/mL | Escherichia coli ATCC 25922 MIC [3]: 0.03125 µg/mL | Hemolysis at 0.2 g/L [4]: 0%

CC[C@H](C)[C@H](NC(=O)[C@@H]1C[C@@H](O)CN1C(=O)[C@@H](NC(=O)[C@@H]1CCCN1C(=O)[C@H](CCCCN)NC(=O)[C@@H](N)CCCCN)C(C)C)C(=O)N[C@H](C(=O)N[C@@H](Cc1ccc(O)cc1)C(=O)N[C@@H]1C(=O)N[C@@H](CC(N)=O)C(=O)N[C@@H](CCCNC(=N)N)C(=O)N[C@@H](CCN)C(=O)N[C@@H]([C@@H](C)O)C(=O)N[C@H](CCN)C(=O)N[C@@H](CCCCN)C(=O)N[C@H](C(=O)N[C@@H](CCN)C(=O)N[C@@H](CCCNC(=N)N)C(=O)N[C@@H](Cc2ccc(O)cc2)C(=O)O)CSSC1(C)C)[C@@H](C)O [Example 118, Lys-Lys-Pro-Val-Hyp-Ile-Thr-Tyr-Pen-Asn-Arg-Dab-Thr-^DDab-Lys-Cys-Dab-Arg-Tyr] (HELM PEPTIDE1{K.K.P.V.[Hyp].I.T.Y.[Pen].N.R.[Dab].T.[NCC[C@@H](N[*:1])C(=O)[*:2]].K.C.[Dab].R.Y}$PEPTIDE1,PEPTIDE1,9:R3-16:R3$$$V2.0)
Klebsiella pneumoniae SSI3010 MIC [1]: 0.125 µg/mL | Escherichia coli MCR-1 Af 45 MIC [2]: 0.0625 µg/mL | Escherichia coli ATCC 25922 MIC [3]: 0.0625 µg/mL | Hemolysis at 0.2 g/L [4]: 0%

CC[C@H](C)[C@H](NC(=O)[C@@H]1C[C@@H](O)CN1C(=O)[C@@H](NC(=O)[C@@H]1CCCN1C(=O)[C@H](CCCCN)NC(=O)[C@@H](N)CCCCN)C(C)C)C(=O)N[C@H](C(=O)N[C@@H](Cc1ccc(O)cc1)C(=O)N[C@H]1CSSC[C@@H](C(=O)N[C@@H](CCN)C(=O)N[C@@H](CCCNC(=N)N)C(=O)N[C@@H](Cc2ccc(O)cc2)C(=O)O)NC(=O)[C@H](CCCCN)NC(=O)[C@@H](CCN)NC(=O)[C@H]([C@@H](C)O)NC(=O)[C@H](CCN)NC(=O)[C@H](CCCNC(=N)N)NC(=O)[C@H](CC(N)=O)NC1=O)[C@@H](C)O [Example 119, Lys-Lys-Pro-Val-Hyp-Ile-Thr-Tyr-Cys-Asn-Arg-Dab-Thr-^DDab-Lys-Cys-Dab-Arg-Tyr] (HELM PEPTIDE1{K.K.P.V.[Hyp].I.T.Y.C.N.R.[Dab].T.[NCC[C@@H](N[*:1])C(=O)[*:2]].K.C.[Dab].R.Y}$PEPTIDE1,PEPTIDE1,9:R3-16:R3$$$V2.0)
Klebsiella pneumoniae SSI3010 MIC [1]: 0.0625 µg/mL | Escherichia coli MCR-1 Af 45 MIC [2]: 0.03125 µg/mL | Escherichia coli ATCC 25922 MIC [3]: 0.03125 µg/mL | Hemolysis at 0.2 g/L [4]: 1%

CC[C@H](C)[C@H](NC(=O)[C@@H]1C[C@@H](O)CN1C(=O)[C@@H](NC(=O)[C@@H]1C[C@@H](O)CN1C(=O)[C@H](CCCCN)NC(=O)[C@@H](N)CCCCN)C(C)C)C(=O)N[C@H](C(=O)N[C@@H](Cc1ccc(O)cc1)C(=O)N[C@@H]1C(=O)N[C@@H](CC(N)=O)C(=O)N[C@@H](CCCNC(=N)N)C(=O)N[C@@H](CCN)C(=O)N[C@@H]([C@@H](C)O)C(=O)N[C@H](CCN)C(=O)N[C@@H](CCCCN)C(=O)N[C@H](C(=O)N[C@@H](CCN)C(=O)N[C@@H](CCCNC(=N)N)C(=O)N[C@@H](Cc2ccc(O)cc2)C(=O)O)CSSC1(C)C)[C@@H](C)O [Example 120, Lys-Lys-Hyp-Val-Hyp-Ile-Thr-Tyr-Pen-Asn-Arg-Dab-Thr-^DDab-Lys-Cys-Dab-Arg-Tyr] (HELM PEPTIDE1{K.K.[Hyp].V.[Hyp].I.T.Y.[Pen].N.R.[Dab].T.[NCC[C@@H](N[*:1])C(=O)[*:2]].K.C.[Dab].R.Y}$PEPTIDE1,PEPTIDE1,9:R3-16:R3$$$V2.0)
Klebsiella pneumoniae SSI3010 MIC [1]: 0.125 µg/mL | Escherichia coli MCR-1 Af 45 MIC [2]: 0.125 µg/mL | Escherichia coli ATCC 25922 MIC [3]: 0.0625 µg/mL | Hemolysis at 0.2 g/L [4]: 0%
